Test [1] has as its system ovarian cancer cells (PA-1). Description: Cancer cell line growth inhibition (SRB assay). The class given is cell-based. As to conditions: Homo sapiens, PA-1; read-out: Cancer Cell Line GI50 Range PA-1. For orientation: In SRB staining, fixed cells bind dye roughly in proportion to their protein.
The next test concerns TICs (Ovarian 2393A). Description: Ovarian tumor-initiating cell growth inhibition (Alamar Blue). The class given is cell-based. To be noted: 144 h; Ovarian 2393A TICs, 6 days; read-out: Tumor Initiating Cell GI50 Range Ovarain 2393A.
The target in a further test is T1, MUSK (Homo sapiens, UniProt O15146).
T1 construct: purchased Millipore Corporation
T1 sequence (O15146 24-869): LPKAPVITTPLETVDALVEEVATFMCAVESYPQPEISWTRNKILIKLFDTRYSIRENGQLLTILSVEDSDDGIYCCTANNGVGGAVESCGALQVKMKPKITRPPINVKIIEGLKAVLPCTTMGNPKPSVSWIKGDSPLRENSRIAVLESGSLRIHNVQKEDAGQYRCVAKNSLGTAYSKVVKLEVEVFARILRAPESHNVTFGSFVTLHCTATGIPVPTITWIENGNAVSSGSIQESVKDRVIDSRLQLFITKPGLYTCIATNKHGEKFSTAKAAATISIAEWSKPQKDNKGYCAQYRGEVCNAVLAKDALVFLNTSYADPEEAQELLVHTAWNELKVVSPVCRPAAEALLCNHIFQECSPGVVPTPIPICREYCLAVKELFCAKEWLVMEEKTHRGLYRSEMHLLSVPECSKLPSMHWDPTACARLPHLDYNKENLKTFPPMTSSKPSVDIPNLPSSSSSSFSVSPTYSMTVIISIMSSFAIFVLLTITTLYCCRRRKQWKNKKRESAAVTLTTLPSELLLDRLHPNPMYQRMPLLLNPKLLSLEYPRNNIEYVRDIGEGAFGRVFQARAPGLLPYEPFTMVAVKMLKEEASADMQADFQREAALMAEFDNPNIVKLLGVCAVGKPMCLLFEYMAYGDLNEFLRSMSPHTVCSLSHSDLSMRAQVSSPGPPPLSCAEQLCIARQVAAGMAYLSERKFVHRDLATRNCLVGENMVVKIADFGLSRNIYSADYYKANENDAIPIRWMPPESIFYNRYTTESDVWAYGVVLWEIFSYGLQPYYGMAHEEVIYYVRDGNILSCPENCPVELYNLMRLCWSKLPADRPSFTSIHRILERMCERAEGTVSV
The test can be described thus: Panel of 270 human kinases (Millipore). The class given is biochemical. As for the experimental part:
(§1) The inhibitory activity of selected compounds of the invention (A335, A405, A410, A261, A300 and A363) was evaluated against a panel of 270 different human kinase enzymes by Millipore Corporation. The % Inhibition was determined by the formula: % Inhibition=100×(1−(experimental value−background value)/(high activity control−background value)).

The target in a further test is T2, Aurora-B (Homo sapiens, UniProt Q96GD4).
T2 construct: purchased Millipore Corporation
Description: Panel of 270 human kinases (Millipore). The class given is biochemical. As for the experimental part:
as §1

Another test addresses T3, Met(Y1248C) (Homo sapiens, UniProt P08581, Y1230C).
T3 construct: purchased Millipore Corporation
The test can be described thus: Panel of 270 human kinases (Millipore). The class given is biochemical. As for the experimental part: as §1

In the next test the target is T4, JNK3 (Homo sapiens, UniProt P53779).
T4 construct: purchased Millipore Corporation
T4 sequence (P53779 whole entry): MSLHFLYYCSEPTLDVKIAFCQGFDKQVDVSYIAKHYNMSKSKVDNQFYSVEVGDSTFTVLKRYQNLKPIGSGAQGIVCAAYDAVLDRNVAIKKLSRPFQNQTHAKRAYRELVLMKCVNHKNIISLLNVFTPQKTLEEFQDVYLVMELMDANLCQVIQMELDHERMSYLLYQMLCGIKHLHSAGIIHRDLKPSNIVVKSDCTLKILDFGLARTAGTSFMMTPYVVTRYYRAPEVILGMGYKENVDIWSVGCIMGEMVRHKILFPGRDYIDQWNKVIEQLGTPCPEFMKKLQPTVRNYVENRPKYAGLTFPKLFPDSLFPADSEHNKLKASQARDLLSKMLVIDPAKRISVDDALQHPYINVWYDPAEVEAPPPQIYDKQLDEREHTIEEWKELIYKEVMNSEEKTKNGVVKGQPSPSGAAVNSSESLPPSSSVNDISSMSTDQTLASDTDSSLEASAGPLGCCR
The test can be described thus: Panel of 270 human kinases (Millipore). The class given is biochemical. How it is done: as §1

A further test addresses T5, ALK (Homo sapiens, UniProt Q9UM73).
T5 construct: purchased Millipore Corporation
The test can be described thus: Panel of 270 human kinases (Millipore). The class given is biochemical. How it is done:
as §1

The target in the next test is T6, MAPK2 (Homo sapiens, UniProt P28482).
T6 construct: purchased Millipore Corporation
Description: Panel of 270 human kinases (Millipore). The class given is biochemical. As for the experimental part: as §1

The target of a further test is T7, cKit (V560G) (Homo sapiens, UniProt P10721, V560G).
T7 construct: purchased Millipore Corporation
T7 sequence (P10721 26-976 V560G): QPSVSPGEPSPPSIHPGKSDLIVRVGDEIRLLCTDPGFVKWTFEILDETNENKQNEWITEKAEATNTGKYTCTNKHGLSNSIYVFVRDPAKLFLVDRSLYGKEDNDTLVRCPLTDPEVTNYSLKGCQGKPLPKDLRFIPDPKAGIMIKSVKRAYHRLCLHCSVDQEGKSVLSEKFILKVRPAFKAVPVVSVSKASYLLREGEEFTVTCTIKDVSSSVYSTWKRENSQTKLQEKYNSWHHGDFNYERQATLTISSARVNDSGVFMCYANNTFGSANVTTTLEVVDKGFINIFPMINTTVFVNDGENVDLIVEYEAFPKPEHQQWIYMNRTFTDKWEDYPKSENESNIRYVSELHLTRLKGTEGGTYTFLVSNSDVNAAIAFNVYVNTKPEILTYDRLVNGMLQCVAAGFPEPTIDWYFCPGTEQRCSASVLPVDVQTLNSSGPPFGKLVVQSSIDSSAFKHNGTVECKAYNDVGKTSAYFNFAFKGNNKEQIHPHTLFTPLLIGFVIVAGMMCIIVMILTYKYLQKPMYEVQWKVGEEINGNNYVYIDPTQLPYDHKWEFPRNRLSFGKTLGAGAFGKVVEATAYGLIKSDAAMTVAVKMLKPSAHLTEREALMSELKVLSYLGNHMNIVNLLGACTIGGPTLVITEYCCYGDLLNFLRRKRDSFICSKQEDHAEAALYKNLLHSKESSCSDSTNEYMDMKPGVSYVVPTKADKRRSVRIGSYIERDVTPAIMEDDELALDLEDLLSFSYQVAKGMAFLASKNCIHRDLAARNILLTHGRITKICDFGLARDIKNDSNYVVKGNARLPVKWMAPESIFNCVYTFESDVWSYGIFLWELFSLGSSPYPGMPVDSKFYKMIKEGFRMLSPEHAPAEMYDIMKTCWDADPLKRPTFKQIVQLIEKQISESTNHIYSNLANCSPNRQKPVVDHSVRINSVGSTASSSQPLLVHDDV
The test can be described thus: Panel of 270 human kinases (Millipore). The class given is biochemical. As for the experimental part: as §1

The target in another test is T8, MELK (Homo sapiens, UniProt Q14680).
T8 construct: purchased Millipore Corporation
T8 sequence (Q14680 whole entry): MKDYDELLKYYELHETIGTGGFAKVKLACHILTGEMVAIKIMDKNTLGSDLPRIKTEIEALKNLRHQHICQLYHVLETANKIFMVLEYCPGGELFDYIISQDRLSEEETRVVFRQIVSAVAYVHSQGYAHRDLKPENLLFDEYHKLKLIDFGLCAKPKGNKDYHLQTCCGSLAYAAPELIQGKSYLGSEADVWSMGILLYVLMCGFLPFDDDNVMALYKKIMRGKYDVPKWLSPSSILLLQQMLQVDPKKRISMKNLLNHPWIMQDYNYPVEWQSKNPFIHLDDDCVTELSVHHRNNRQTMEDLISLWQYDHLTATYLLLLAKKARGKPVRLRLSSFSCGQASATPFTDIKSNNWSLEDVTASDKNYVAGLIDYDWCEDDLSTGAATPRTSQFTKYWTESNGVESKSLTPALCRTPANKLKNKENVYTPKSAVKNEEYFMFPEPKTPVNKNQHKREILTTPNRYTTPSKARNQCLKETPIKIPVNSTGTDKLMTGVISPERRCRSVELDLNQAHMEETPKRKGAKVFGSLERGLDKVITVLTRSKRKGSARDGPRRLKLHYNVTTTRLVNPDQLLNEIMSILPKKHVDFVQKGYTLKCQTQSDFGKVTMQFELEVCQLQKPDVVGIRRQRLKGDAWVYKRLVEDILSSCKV
Description: Panel of 270 human kinases (Millipore). The class given is biochemical. As for the experimental part: as §1

In the next test the test system is TICs (Colon 12). The test can be described thus: Colon tumor-initiating cell growth inhibition (Alamar Blue). The class given is cell-based. As to conditions: 216 h; Colon 12 TICs, 9 days; read-out: Tumor Initiating Cell GI50 Range Colon 12. A general note: Alamar Blue is a resazurin reagent that responds to reducing activity.
The test system of another test is Breast cancer cells. The test can be described thus: Cancer cell line growth inhibition (SRB assay). The class given is cell-based. To be noted: Homo sapiens; MDA-MB-468; read-out: Cancer Cell Line GI50 Range MDA-MB-468.
Test [2] deals with colon cancer cells (HCT116). Description: Cancer cell line growth inhibition (SRB assay). The class given is cell-based. As to conditions: Homo sapiens, HCT-116; read-out: Cancer Cell Line GI50 Range HCT116.
A further test addresses T9, human TTK (Homo sapiens, UniProt P33981).
T9 construct: amino terminal GST fusion of full length human TTK; purchased Invitrogen
T9 sequence (P33981 1-857): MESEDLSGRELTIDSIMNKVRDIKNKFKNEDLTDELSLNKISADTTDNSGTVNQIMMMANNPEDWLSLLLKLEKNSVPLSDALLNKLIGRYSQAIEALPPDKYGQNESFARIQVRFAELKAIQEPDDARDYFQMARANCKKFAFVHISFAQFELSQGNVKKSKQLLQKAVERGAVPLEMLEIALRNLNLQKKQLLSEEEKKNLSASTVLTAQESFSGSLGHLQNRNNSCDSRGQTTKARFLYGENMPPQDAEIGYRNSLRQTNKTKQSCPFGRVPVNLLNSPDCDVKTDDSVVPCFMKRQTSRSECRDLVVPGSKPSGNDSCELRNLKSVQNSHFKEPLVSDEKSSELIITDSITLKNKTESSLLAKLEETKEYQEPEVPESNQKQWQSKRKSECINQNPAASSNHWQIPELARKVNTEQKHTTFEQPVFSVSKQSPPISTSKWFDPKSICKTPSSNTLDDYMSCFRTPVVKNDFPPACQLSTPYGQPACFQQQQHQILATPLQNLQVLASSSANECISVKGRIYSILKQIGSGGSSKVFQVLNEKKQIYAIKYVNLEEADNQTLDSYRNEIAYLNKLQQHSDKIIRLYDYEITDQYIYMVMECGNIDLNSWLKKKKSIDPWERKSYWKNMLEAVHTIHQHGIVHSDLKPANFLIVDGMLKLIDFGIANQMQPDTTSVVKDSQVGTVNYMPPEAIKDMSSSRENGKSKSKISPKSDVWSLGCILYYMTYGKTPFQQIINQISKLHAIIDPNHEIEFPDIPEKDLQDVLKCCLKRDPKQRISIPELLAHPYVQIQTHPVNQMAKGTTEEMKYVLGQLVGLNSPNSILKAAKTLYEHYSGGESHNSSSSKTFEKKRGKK
The test can be described thus: TTK inhibition assay (indirect ELISA). The class given is biochemical. As to conditions: read-out: TTK IC50 Range.

These results are taken from patent US9580390B2, “Indazole compounds as kinase inhibitors and method of treating cancer with same” (University Health Network, priority 2011, dated 2017).

The GI50 is the concentration that inhibits growth by half. Usually inhibition stands for how much of the control response was suppressed. Read a low inhibition as a weak effect. As a reminder, the IC50 is the concentration that inhibits the measured activity by half.

T5 sequence (Q9UM73 19-1620): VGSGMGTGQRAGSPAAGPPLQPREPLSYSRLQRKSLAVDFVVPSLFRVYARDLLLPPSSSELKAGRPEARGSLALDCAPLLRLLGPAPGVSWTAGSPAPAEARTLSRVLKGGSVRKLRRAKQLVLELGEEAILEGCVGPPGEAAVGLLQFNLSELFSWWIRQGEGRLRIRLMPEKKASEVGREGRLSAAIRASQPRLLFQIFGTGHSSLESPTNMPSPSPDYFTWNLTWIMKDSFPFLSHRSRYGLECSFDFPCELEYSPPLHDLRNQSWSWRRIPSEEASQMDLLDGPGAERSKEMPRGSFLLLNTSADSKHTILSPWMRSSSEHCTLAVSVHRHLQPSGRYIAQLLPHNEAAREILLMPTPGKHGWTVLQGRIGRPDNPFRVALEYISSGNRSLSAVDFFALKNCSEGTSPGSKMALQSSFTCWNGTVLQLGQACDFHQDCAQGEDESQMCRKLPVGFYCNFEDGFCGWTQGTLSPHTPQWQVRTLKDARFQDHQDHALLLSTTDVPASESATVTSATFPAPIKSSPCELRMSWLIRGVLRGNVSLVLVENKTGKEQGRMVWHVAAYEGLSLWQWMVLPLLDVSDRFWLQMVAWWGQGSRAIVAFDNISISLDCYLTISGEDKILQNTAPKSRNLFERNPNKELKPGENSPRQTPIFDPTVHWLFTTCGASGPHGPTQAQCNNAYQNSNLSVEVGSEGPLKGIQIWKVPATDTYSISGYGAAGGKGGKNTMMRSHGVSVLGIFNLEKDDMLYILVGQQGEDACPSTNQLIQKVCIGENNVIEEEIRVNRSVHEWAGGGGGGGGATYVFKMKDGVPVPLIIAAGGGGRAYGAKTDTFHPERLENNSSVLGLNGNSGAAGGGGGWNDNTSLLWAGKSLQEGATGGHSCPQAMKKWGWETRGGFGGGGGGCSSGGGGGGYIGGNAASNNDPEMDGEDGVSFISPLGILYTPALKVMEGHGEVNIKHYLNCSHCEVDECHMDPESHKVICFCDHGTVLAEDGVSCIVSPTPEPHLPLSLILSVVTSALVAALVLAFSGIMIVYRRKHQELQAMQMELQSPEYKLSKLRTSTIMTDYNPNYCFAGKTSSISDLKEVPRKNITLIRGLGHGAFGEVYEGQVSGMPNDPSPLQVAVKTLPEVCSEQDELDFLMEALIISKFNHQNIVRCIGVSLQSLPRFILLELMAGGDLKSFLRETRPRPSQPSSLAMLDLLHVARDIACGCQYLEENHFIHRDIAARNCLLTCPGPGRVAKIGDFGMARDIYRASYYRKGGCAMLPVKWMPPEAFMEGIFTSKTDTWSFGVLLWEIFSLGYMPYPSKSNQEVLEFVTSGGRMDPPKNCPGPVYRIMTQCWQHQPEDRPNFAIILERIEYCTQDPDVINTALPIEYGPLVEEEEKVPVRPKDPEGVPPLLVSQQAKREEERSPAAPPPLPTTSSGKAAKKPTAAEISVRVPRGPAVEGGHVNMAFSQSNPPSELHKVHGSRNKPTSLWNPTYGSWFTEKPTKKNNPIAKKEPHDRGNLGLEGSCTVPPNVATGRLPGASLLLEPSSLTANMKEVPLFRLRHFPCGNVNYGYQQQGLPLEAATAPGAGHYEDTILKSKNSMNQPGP
T3 sequence (P08581 25-1408 isoform P08581-2 Y1248C limits assumed): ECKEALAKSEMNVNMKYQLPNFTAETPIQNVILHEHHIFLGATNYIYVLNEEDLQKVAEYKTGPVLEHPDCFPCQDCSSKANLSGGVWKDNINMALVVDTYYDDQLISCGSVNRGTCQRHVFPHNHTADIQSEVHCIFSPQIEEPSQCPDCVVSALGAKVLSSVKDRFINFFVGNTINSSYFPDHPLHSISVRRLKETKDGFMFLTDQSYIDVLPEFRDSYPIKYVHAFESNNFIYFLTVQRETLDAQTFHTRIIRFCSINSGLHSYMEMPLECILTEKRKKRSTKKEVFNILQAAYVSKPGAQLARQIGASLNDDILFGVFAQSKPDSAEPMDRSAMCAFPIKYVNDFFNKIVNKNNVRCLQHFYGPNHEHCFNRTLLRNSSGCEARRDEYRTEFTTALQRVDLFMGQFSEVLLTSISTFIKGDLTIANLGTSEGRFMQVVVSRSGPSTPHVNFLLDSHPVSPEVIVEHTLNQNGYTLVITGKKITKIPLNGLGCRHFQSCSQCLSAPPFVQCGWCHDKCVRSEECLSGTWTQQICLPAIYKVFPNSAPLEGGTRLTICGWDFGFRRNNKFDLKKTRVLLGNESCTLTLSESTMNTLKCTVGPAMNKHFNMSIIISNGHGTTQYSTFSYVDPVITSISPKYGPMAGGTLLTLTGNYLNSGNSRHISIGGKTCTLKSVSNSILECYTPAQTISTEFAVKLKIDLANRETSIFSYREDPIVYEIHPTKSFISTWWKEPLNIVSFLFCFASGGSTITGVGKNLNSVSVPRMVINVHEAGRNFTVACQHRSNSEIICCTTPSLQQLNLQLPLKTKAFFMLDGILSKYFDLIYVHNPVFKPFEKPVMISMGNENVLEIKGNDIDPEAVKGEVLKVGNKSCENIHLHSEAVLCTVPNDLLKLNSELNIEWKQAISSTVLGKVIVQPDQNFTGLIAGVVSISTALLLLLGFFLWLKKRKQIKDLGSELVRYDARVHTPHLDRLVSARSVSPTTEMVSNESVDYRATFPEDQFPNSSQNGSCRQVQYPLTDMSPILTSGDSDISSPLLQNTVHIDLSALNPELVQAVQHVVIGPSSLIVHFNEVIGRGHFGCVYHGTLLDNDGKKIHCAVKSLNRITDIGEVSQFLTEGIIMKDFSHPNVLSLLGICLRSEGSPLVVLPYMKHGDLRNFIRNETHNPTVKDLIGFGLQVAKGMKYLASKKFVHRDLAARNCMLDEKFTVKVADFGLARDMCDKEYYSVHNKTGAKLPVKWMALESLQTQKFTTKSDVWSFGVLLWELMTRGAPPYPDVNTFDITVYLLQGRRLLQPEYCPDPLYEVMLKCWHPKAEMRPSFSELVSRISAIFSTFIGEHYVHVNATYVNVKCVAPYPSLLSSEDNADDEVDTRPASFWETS
Description for human TTK: Active TTK was purchased from Invitrogen as an amino terminal GST fusion of full length human TTK. Amino terminal 6 histidine, sumo tagged human TTK (residues 1-275) was expressed in E. coli, and purified to >95% homogeneity by Ni^2+ agarose, gel filtration, and ion exchange chromatography.
TTK activity was measured using an indirect ELISA detection system. GST-TTK (0.68 nM) was incubated in the presence of 16 μM ATP (Sigma cat# A7699), 50 mM Hepes pH 7.2, 1 mM EGTA, 10 mM MgCl2, and 0.1% Pluronic in a 96 well microtitre plate pre-coated with amino terminal 6 histidine, sumo tagged TTK (amino acid residues 1-275). The reaction was allowed to proceed for 30 minutes, followed by 5 washes of the plate with Wash Buffer (phosphate buffered saline supplemented with 0.2% Tween 20), and incubation for 30 minutes with a 1:3000 dilution of primary antibody (Cell Signaling cat# 9381). The plate was washed 5 times with Wash Buffer, incubated for 30 minutes in the presence of secondary antibody coupled to horse radish peroxidase (BioRad cat# 1721019, 1:3000 concentration), washed an additional 5 times with Wash Buffer, and incubated in the presence of TMB substrate (Sigma cat# T0440). The colourimetric reaction was allowed to continue for 5 minutes, followed by addition of stop solution (0.5 N sulphuric acid), and quantified by detection at 450 nm with either a monochromatic or filter based plate reader (Molecular Devices M5 or Beckman DTX880, respectively).
Compounds were pre-incubated in the presence of enzyme for 5 minutes prior to addition of ATP and the activity remaining quantified using the above described activity assay. The % Inhibition of a compound was determined using the following formula: % Inhibition=100×(1−(experimental value−background value)/(high activity control−background value)). The IC50 value was determined using a non-linear 4 point logistic curve fit (XLfit4, IDBS) with the formula: (A+(B/(1+((x/C)^D)))), where A=background value, B=range, C=inflection point, D=curve fit parameter.

For the compound `CC1=CC2(CCN(C)CC2)Oc2ccc(-c3n[nH]c4ccc(C(=O)N[C@H](c5ccccn5)C5CCCC5)cc34)cc21` [Example A261, (S)-N-(cyclopentyl(pyridin-2-yl)methyl)-3-(1′,4-dimethylspiro[chromene-2,4′-piperidin]-6-yl)-1H-indazole-5-carboxamide], the GI50 in test [1] was < 100 nM; with TICs (Ovarian 2393A), < 100 nM; in the test on TICs (Colon 12) it was 100 to 500 nM; with Breast cancer cells, < 100 nM; in [2], < 100 nM. Besides, the inhibition at 1 µM against MUSK was 86%; on Aurora-B, 49%; at Met(Y1248C), 8%; against JNK3, 59%; against ALK, 86%; against MAPK2, 8%. Moreover, the figures for the inhibition at 1 µM against cKit (V560G) and at MELK were 90% and 93%, respectively. Moreover, the concentration for half-maximal inhibition (IC50) at human TTK was < 100 nM.
